We go through three compounds from patent publication US4321260A, “Method of using gonadorelin for the treatment of benign prostatic hyperplasia” (Ayerst, McKenna & Harrison Inc., priority 1980, dated 1982).

“Also recorded” adds a separate entry of the source.

For one series, the system named is seminal vesicles. Description: 3-week daily s.c. treatment of male rats, weight of the seminal vesicles. The class given is in vivo, Sprague-Dawley rats. Particulars: for weight of the seminal vesicles (wet weight): male rats. Here is the method: (§1) Adult male Sprague-Dawley rats weighing 275-325 g upon arrival were obtained from Canadian Breeding Laboratories, St. Constant, Quebec, Canada. All animals were housed 2 per cage in an air-conditioned (21±1° C.; 45-50% humidity) and light (12 hours light, 12 hours darkness)-controlled room and given food and water ad libitum. […] Rats were killed by decapitation 24 hours after the last injection. The testes, seminal vesicles and ventral prostate were removed, chilled, weighed and kept frozen at -20° C. until use.

For another series, the system named is ventral prostate. Description: 3-week daily s.c. treatment of male rats, weight of the ventral prostate. The class given is in vivo, Sprague-Dawley rats. Particulars: for weight of the ventral prostate (wet weight): male rats. The protocol: as §1
The subject of the next series is testes. The conditions noted are these: in vivo; cited from earlier work.
The mark [1] stands for this setting: 25μg s.c. daily, 1 week of treatment.
Setting [2] is: 25μg s.c. daily, 2 weeks of treatment.
The mark [3] stands for this setting: 25μg s.c. daily, 3 weeks of treatment.
[4] abbreviates: 250μg s.c. daily, 1 week of treatment.
Where [5] appears, read: 250μg s.c. daily, 2 weeks of treatment.
Where [6] appears, read: 250μg s.c. daily, 3 weeks of treatment.
Setting [7] is: 2500μg s.c. daily, 1 week of treatment.
Setting [8] is: 2500μg s.c. daily, 2 weeks of treatment.
Setting [9] is: 2500μg s.c. daily, 3 weeks of treatment.
Setting [10] is: daily subcutaneous administration to male rats up to three weeks, listed as gonadorelin.

As to `CC(C)C[C@H](NC(=O)CNC(=O)[C@H](Cc1ccc(O)cc1)NC(=O)[C@H](CO)NC(=O)[C@H](Cc1c[nH]c2ccccc12)NC(=O)[C@H](Cc1cnc[nH]1)NC(=O)[C@@H]1CCC(=O)N1)C(=O)N[C@@H](CCCNC(=N)N)C(=O)N1CCC[C@H]1C(=O)NCC(N)=O` [LH-RH, Pyr-His-Trp-Ser-Tyr-Gly-Leu-Arg-Pro-Gly-NH2], the “weight of the seminal vesicles (wet weight)” value with seminal vesicles (setting [1]) turned out to be 281 ± 14 mg; in the series on seminal vesicles (setting [2]), 247 ± 9 mg; with seminal vesicles (setting [3]) it was 260 ± 13 mg; in the series with seminal vesicles (setting [4]), 298 ± 10 mg; with seminal vesicles (setting [5]), 249 ± 18 mg; in the series with seminal vesicles (setting [6]), 210 ± 8 mg. Moreover, the “weight of the seminal vesicles (wet weight)” value with seminal vesicles (setting [7]) is 265 ± 10 mg; with seminal vesicles (setting [8]) it was 236 ± 13 mg; in the series with seminal vesicles (setting [9]), 225 ± 9 mg. Also, the “effect on the weight of seminal vesicles (in words)” value in the series on seminal vesicles (setting [10]) is reported as “significant decrease; also recorded: significantly decreases”. For the same compound, the “weight of the ventral prostate (wet weight)” value with ventral prostate (setting [1]) was 359 ± 23 mg; with ventral prostate (setting [2]) it was 415 ± 31 mg; in the series with ventral prostate (setting [3]), 378 ± 13 mg; in the series with ventral prostate (setting [4]), 360 ± 26 mg; in the series with ventral prostate (setting [5]) it was 380 ± 38 mg; in the series with ventral prostate (setting [6]) it was 370 ± 25 mg. In addition, the “weight of the ventral prostate (wet weight)” value turned out to be 325 ± 12 mg with ventral prostate (setting [7]), 355 ± 31 mg in the series with ventral prostate (setting [8]) and 373 ± 18 mg with ventral prostate (setting [9]). Besides, the “effect on ventral prostate weight (in words)” value with ventral prostate (setting [10]) is “significant decrease; also recorded: significantly decreases”.

On to “[D-Ala^6, des-Gly-NH2^10 ]-LH-RH ethylamide”, for which the “selective effect (decrease of seminal vesicle and ventral prostate weight while not affecting testicular weight)” value in the series on testes is reported as “do not show such a selectivity”.

With “[D-Leu^6,des-Gly-NH2^10 ]-LH-RH ethylamide”, the “selective effect (decrease of seminal vesicle and ventral prostate weight while not affecting testicular weight)” value with testes is “do not show such a selectivity”.
